Reference: patent US20240018472A1, “ENHANCEMENT OF EXTRACELLULAR VESICLE PRODUCTION BY LYSOSOME INHIBITOR” (ExoTop Theragnostics Inc., priority 2022, published 2024)
Entries after “also recorded” stand apart in the source; their conditions may differ.

Tests used:
miR-222 = assay: microRNA expression of miR-222 (miR-22 in the source), MSC with or without CQ; format: cell-based; settings: CQ 50 μM, 48 hours
Protocol: (§1) Mesenchymal stem cells (MSC) were cultured in complete media until reaching 70% overall cell confluence, and then were further cultured in three different media with or without chloroquine (CQ) at 50 μM for 48 hours: complete media (normal culture media containing serum), αMEM (minimum essential media), and CDPF (chemically defined protein-free media). The cultured cells were analyzed for protein expression of TSG-6 (tumor necrosis factor-inducible gene 6 protein), Gal-3 (β-galactoside-binding lectin-3), and IDO and microRNA expression of miR-21 and miR-222. One-way ANOVA statistics were performed to analyze the data. P-value of greater than 0.05 was considered as not having a significant difference. *** indicates p≤0.001.

human MSCs = assay: Intracellular acidification of MSCs, lysotracker red staining of acidic organelles; format: cell-based; settings: MSCs cultured in CDPF with lysosome inhibitor vs CCM and CDPF
Protocol: The plate was incubated again.
Human MSCs were cultured in different media including complete culture medium (CCM), CDPF, and CDPF with lysosome inhibitor. The acidic organelles in live stem cells were stained by lysotracker red.

[1] = test system: FASN (fatty acid synthase); assay: qPCR of FASN gene expression in MSCs with or without CQ; format: cell-based; settings: both serum-free media and complete media, 48-hour culture
Protocol: (§2) Mesenchymal stem cells (MSCs) were subjected to 48-hour culture in either complete media or serum-free media, followed by treatment with or without CQ to investigate alterations in cellular morphology. In addition, the gene expression levels of FASN (fatty acid synthase, a pivotal lipogenic enzyme) and SREBF-1(sterol regulatory element-binding transcription factor-1), two key factors involved in lipid metabolism, were assessed by qPCR.

[2] = test system: Gal-3 (β-galactoside-binding lectin-3); assay: Protein expression of Gal-3, MSC with or without CQ; format: cell-based; settings: both αMEM media and CDPF media; CQ 50 μM, 48 hours
Protocol: as §1

IDO = assay: Protein expression of IDO, MSC with or without CQ; format: cell-based; settings: both αMEM media and CDPF media; CQ 50 μM, 48 hours
Protocol: as §1

[3] = test system: SREBF-1 (sterol regulatory element-binding transcription factor-1); assay: qPCR of SREBF-1 gene expression in MSCs with or without CQ; format: cell-based; settings: both serum-free media and complete media, 48-hour culture
Protocol: as §2

CD63 [4] = assay: CD63 ELISA of cell-cultured media, MSC with or without CQ in three media; format: cell-based; settings: for CD63 levels (ELISA) vs corresponding medium without CQ: CQ 50 μM, 48 hours
Protocol: (§3) Mesenchymal stem cells (MSC) were cultured in complete media until reaching 70% overall cell confluence, and then were further cultured in three different media with or without chloroquine (CQ) at 50 μM for 48 hours: complete media (normal culture media containing serum), αMEM (minimum essential media), and CDPF (chemically defined protein-free media). The cell-cultured media were collected, filtered through a 0.2 μm filter, and assessed by CD63 ELISA to quantify the amount of CD63, a protein marker associated with small-sized EVs (FIG. 5A).
(§4) One-way ANOVA statistics were performed to analyze the data. In some cases, CD63 is a marker associated with small-sized EVs. In some cases, CD81 is a marker associated with EVs generally. P-value of greater than 0.05 was considered as not having a significant difference. *** indicates p≤0.001.

[5] = test system: fatty acid synthase (FASN); assay: qPCR RQ for fatty acid synthase (FASN) in MSCs in CCM or CDPF with or without lysosome inhibitor; format: cell-based
Protocol: (§6) Mesenchymal stem cells were seeded on the plate at a density of ˜5000 cells/cm^2 and the plate was placed in a 5% CO2 humidified incubator. One day after the incubation, the culture media was aspirated to remove non-adherent cells and switched to a fresh media. The plate was incubated again. After further culturing for around 3 to 5 days, the culture media was aspirated and replaced by CDPF and/or lysosome inhibitor medium. The cells were cultured in the CDPF and/or lysosome inhibitor medium for 12, 24, or 48 hours. After the designated period of culturing, the culture media was collected and cell lysis buffer was immediately added to the cells on the plate. The collected media and cell lysate were each independently subjected to detection of the level of CD63 by ELISA and by qPCR, respectively.
(§7) To quantitatively compare CD63+ expression in CM cultured in various media including CCM, CDPF, and CDPF with lysosome inhibitor, enzyme-linked immunosorbent (ELISA) assays were performed.

CD63 [6] = assay: qPCR of CD63 gene expression in MSCs with or without CQ; format: cell-based; settings: CQ 50 μM, 48 hours; for gene expression of CD63 (in words): listed as CQ
Protocol: as §3
(§5) To further examine whether the upregulation of CD63 protein is a result of cytosolic secretion or heightened expression at the gene level, an analysis of alterations in the gene expression levels of extracellular vesicle-specific components in both complete and serum-free media was performed. The cultured cells were collected to perform qPCR analysis to detect three well-established EV markers: CD09, CD63, and CD81 (FIGS. 5B, 5C, and 5D).
as §4

[7] = test system: Mesenchymal stem cells (MSCs); assay: Cellular morphology of MSCs after 48-hour culture with or without CQ; format: cell-based; settings: CQ in serum-free media compared to complete media
Protocol: as §2

miR-21 = assay: microRNA expression of miR-21, MSC with or without CQ; format: cell-based; settings: CQ 50 μM, 48 hours
Protocol: as §1

[8] = test system: TSG-6 (tumor necrosis factor-inducible gene 6 protein); assay: Protein expression of TSG-6, MSC with or without CQ; format: cell-based; settings: regardless of the culture condition; CQ 50 μM, 48 hours
Protocol: as §1

CD63 [9] = assay: CD63 ELISA of culture media, secretion of EVs (CD63+ particles) from stem cells; format: cell-based, human
Protocol: as §6, §7

CD81 = assay: qPCR of CD81 gene expression in MSCs with or without CQ; format: cell-based; settings: all media conditions (complete, αMEM, CDPF); CQ 50 μM, 48 hours; listed as CQ
Protocol: as §3, §5, §4

CD09 = assay: qPCR of CD09 gene expression in MSCs with or without CQ; format: cell-based; settings: all media conditions; CQ 50 μM, 48 hours
Protocol: as §3, §5, §4

[10] = complete media culture condition
[11] = CDPF with lysosome inhibitor vs CDPF, RT-qPCR

Protocol for human CD63 (hCD63) gene: Mesenchymal stem cells were seeded on the plate at a density of 5000 cells/cm^2 and the plate was placed in a 5% CO2 humidified incubator. One day after the incubation, the culture media was aspirated to remove non-adherent cells and switched to a fresh media. The plate was incubated again. After further culturing for around 3 to 5 days, the culture media was aspirated and replaced by CDPF and/or lysosome inhibitor medium. The cells were cultured in the CDPF and/or lysosome inhibitor medium for 12, 24, or 48 hours. After the designated period of culturing, the culture media was collected and cell lysis buffer was immediately added to the cells on the plate. The collected media and cell lysate were each independently subjected to detection of the level of CD63 by ELISA and by qPCR, respectively.
To compare hCD63+ expression in MSCs cultured in various media including CCM, CDPF, and CDPF with lysosome inhibitor, RT-quantitative real-time PCR (RT-qPCR) assays were performed.

expression level of Gal-3 (in words) [2]: increased
gene expression of SREBF-1 (in words) [3]: robust upregulation
SMILES: CCN(CC)CCCC(C)Nc1ccnc2cc(Cl)ccc12 (centres unmarked) [chloroquine]
expression of miR-22 (in words) (miR-222; [10]): did not induce an increase
expression of miR-22 (in words) (miR-222; serum-free conditions): increased
intracellular acidification of human MSCs (human MSCs): suppresses
gene expression of FASN (in words) [1]: robust upregulation
expression level of IDO (in words) (IDO): increased
CD63 levels (ELISA) vs corresponding medium without CQ (CD63 [4]; CDPF+CQ): higher
CD63 levels (ELISA) vs corresponding medium without CQ (CD63 [4]; complete medium+CQ): higher
increase in EVs (CD63+) quantity resulting from CQ treatment, serum-free vs complete media (CD63 [4]; serum-free media (αMEM and CDPF) compared to complete media): larger
CD63 levels (ELISA) vs corresponding medium without CQ (CD63 [4]; αMEM+CQ): higher
expression of FASN, fold vs CCM ([5]; CCM with lysosome inhibitor vs CCM, RT-qPCR): about 25 times
expression of FASN, fold vs CDPF without lysosome inhibitor [5, 11]: about 5 times
gene expression of FASN (in words) ([5]; treatment with lysosome inhibitor, qPCR RQ): drastically induced
gene expression of CD63, fold vs corresponding medium without CQ (CD63 [6]; CDPF+CQ vs CDPF): more than 2.5 times
gene expression of CD63 (in words) (CD63 [6]; complete media): no notable changes; also recorded: not seen
gene expression of CD63 (in words) (CD63 [6]; serum-free media (αMEM, CDPF), p≤0.001): significant upregulation; also recorded: large increase
gene expression of CD63, fold vs corresponding medium without CQ (CD63 [6]; αMEM+CQ vs αMEM): more than 2.5 times
cellular morphology [7]: notable thinning of spindle-shaped cells and the emergence of numerous lipid body-like structures
expression of miR-21 (in words) (miR-21; [10]): did not induce an increase
expression of miR-21 (in words) (miR-21; serum-free conditions): increased
TSG-6 content levels (in words) [8]: did not stimulate an increase
expression of hCD63+ gene, fold vs MSCs cultured in CCM (human CD63 (hCD63) gene; CDPF with lysosome inhibitor vs CCM, RT-qPCR): about 10 times
expression of hCD63+ gene, fold vs MSCs cultured in CDPF without lysosome inhibitor (human CD63 (hCD63) gene; [11]): about 5 times
CD63 gene expression in MSCs (in words) (human CD63 (hCD63) gene; CDPF with lysosome inhibitor, qPCR): dramatic increase; also recorded: increased
secretion of EVs (CD63+ particles) from stem cells to cultured medium (in words) (CD63 [9]; CDPF with lysosome inhibitor vs CCM and CDPF): stimulated
EV productions (CD63 ELISA), fold vs CCM or CDPF without lysosome inhibitor (CD63 [9]; CDPF with lysosome inhibitor vs CCM or CDPF): about 2.3 times
CD81 gene expression (in words) (CD81): did not increase significantly; also recorded: remained similar
CD09 expression (in words) (CD09): elevated
